Laboratory results published in US20240262806A1, “INHIBITORS OF NLRP3” (PTC THERAPEUTICS, INC., priority 2021, published 2024).

Each molecule was assayed on NLRP3 inflammasome (assay: IL-1β Secretion Assay (NLRP3-dependent IL-1β secretion in PMA-differentiated THP-1 cells, nigericin activation, HTRF)). Conditions: Homo sapiens, THP-1, THP-1 cells, 100 ng/mL PMA 24 h, compound 20 h, 2.5 μM Nigericin 3 h; read-out: IC50 IL-1β Inhibition.
Type: cell-based
Summary of the method: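 PMA-differentiated THP-1 cells in RPMI with 5% FBS were treated with compounds at 7 concentrations in threefold DMSO dilutions. NLRP3 was activated with nigericin and secreted IL-1β measured by HTRF. IC50 from a logistic fit of percent inhibition versus concentration.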
Work on `FC(F)Oc1cc(C(F)(F)F)ccc1-c1nnc(N[C@@H]2CCCNC2)c2ccncc12` [Compound I-231] yielded an IC50 of 10 to 100 nM.
`CN1CCC[C@@H](Nc2nnc(-c3ccc(C(F)(F)F)cc3-c3ccn(C)n3)c3ccncc23)C1` [Compound I-232] gave an IC50 of 10 to 100 nM.
Molecule `COc1cc(C(F)F)ccc1-c1nnc(N[C@@H]2CCCN(C)C2)c2cnccc12` [Compound I-234] has an IC50 of 10 to 100 nM.
Molecule `CCN1CCC[C@@H](Nc2nnc(-c3ccc(C(F)(F)F)cc3OC(F)F)c3cnccc23)C1` [Compound I-235] has an IC50 of 1 to 10 nM.
Molecule `CN1CCC[C@@H](Nc2nnc(-c3ccc(C(F)(F)F)cc3OC(F)F)c3c2CCC3)C1` [Compound I-236] has an IC50 of 1 to 10 nM.
Molecule `CN1CCC[C@@H](Nc2nnc(-c3ccc(OC4CC4)cc3O)c3ccncc23)C1` [Compound I-237, (R)-5-Cyclopropoxy-2-(4-((1-methylpiperidin-3-yl)amino)pyrido[3,4-d]pyridazin-1-yl)phenol] has an IC50 of 1 to 10 nM.
Work on `OCCN1CCC[C@@H](Nc2nnc(-c3ccc(C(F)(F)F)cc3OC(F)F)c3cnccc23)C1` [Compound I-238] yielded an IC50 of 10 to 100 nM.
Molecule `CN1CCC[C@@H](Nc2nnc(-c3ccc(Cl)cc3C(F)F)c3ccncc23)C1` [Compound I-239] has an IC50 of 1 to 10 nM.
With `CN1CCC[C@@H](Nc2nnc(-c3ccc(C(F)(F)F)cc3-c3cccnc3)c3ccncc23)C1` [Compound I-240] the IC50 was 100 to 300 nM.
Molecule `CN1CCC[C@@H](Nc2nnc(-c3ccc(Cl)cc3OC(F)F)c3c2CCC3)C1` [Compound I-241] has an IC50 of 10 to 100 nM.
Work on `CN1CCCCC1CNc1nnc(-c2ccc(C(F)(F)F)cc2O)c2ccncc12` (centres unmarked) [Compound I-243] yielded an IC50 of 1 to 10 nM.
Molecule `Cc1ccc(-c2nnc(N[C@@H]3CCCN(C)C3)c3c2CCC3)c(OC(F)F)c1` [Compound I-244] has an IC50 of 10 to 100 nM.
With `CN1CCC[C@@H](Nc2nnc(-c3ccccc3OC(F)F)c3c2CCC3)C1` [Compound I-245] the IC50 was 1 to 10 nM.
Molecule `CN1CCC[C@@H](Nc2nnc(-c3ccc(C4CC4)cc3OC(F)F)c3c2CCC3)C1` [Compound I-246] has an IC50 of 10 to 100 nM.
For `CN1CCC[C@@H](Nc2nnc(-c3ccc(C4CC4)cc3OC(F)F)c3ccncc23)C1` [Compound I-247], the IC50 was 1 to 10 nM.
In the case of `CN1CCC[C@@H](Nc2nnc(-c3ccc(C4CC4)cc3C(F)F)c3ccncc23)C1` [Compound I-248], the IC50 is reported as 1 to 10 nM.
With `CN1CCC[C@@H](Nc2nnc(-c3ccc(C(F)F)cc3F)c3ccncc23)C1` [Compound I-249] the IC50 was 10 to 100 nM.
For `CN1CCC[C@@H](Nc2nnc(-c3ccc(C(F)(F)F)cc3O)c3cscc23)C1` [Compound I-250], the IC50 was less than 1 nM.
Work on `COc1cc(C(F)(F)F)ccc1-c1nnc(N[C@@H]2CCCCNC2)c2cnccc12` [Compound I-251] yielded an IC50 of 100 to 300 nM.
`Oc1cc(C(F)(F)F)ccc1-c1nnc(N[C@H]2CNCCOC2)c2cnccc12` [Compound I-252] was tested, and the IC50 was 10 to 100 nM.
With `Oc1cc(C(F)(F)F)ccc1-c1nnc(NC2CCCNCC2)c2cnccc12` (centres unmarked) [Compound I-253] the IC50 was 1 to 10 nM.
`COc1ccc(-c2nnc(N[C@@H]3CCCN(C)C3)c3cnccc23)c(C)c1` [Compound I-254] gave an IC50 of 1 to 10 nM.
With `Cc1noc2c(-c3ccc(C(F)(F)F)cc3O)nnc(N[C@@H]3CCCN(C)C3)c12` [Compound I-255, 2-[3-methyl-4-[[(3R)-1-methyl-3-piperidyl]amino]isoxazolo[4,5-d]pyridazin-7-yl]-5-(trifluoromethyl)phenol] the IC50 was 1 to 10 nM.
In the case of `Cc1noc2c(-c3ccc(C(F)(F)F)cc3O)nnc(N[C@@H]3CCCN(CCO)C3)c12` [Compound I-256, 2-[3-methyl-4-[[(3R)-1-(2-hydroxyethyl)-3-piperidyl]amino]isoxazolo[4,5-d]pyridazin-7-yl]-5-(trifluoromethyl)phenol], the IC50 is reported as 10 to 100 nM.
Work on `Oc1cc(C(F)(F)F)ccc1-c1nnc(N[C@@H]2CCCN(C3CC(CC(F)F)C3)C2)c2cnccc12` (some centres unmarked) [Compound I-257] yielded an IC50 of 1 to 10 nM.
`COc1ccc(-c2nnc(N[C@@H]3CCCN(C)C3)c3c2CCC3)c(C(F)(F)F)c1` [Compound I-258] gave an IC50 of 10 to 100 nM.
Work on `CN1CCC[C@@H](Nc2nnc(-c3ccc(C(F)(F)F)cc3C(F)(F)F)c3c2CCC3)C1` [Compound I-259] yielded an IC50 of 10 to 100 nM.
In the case of `CN1CCOCC(Nc2nnc(-c3ccc(C(F)(F)F)cc3O)c3cnccc23)C1` (centres unmarked) [Compound I-260], the IC50 is reported as 10 to 100 nM.
For `Oc1cc(C(F)(F)F)ccc1-c1nnc(N[C@@H]2CCCCNC2)c2cnccc12` [Compound I-261], the IC50 was 1 to 10 nM.
For `CN1CCOCC(Nc2nnc(-c3ccc(C(F)(F)F)cc3O)c3ccncc23)C1` (centres unmarked) [Compound I-262], the IC50 was 1 to 10 nM.
For `CN1CCCC(Nc2nnc(-c3ccc(C(F)(F)F)cc3O)c3ccncc23)CC1` (centres unmarked) [Compound I-263], the IC50 was 1 to 10 nM.
`CN1CCN(C)CC(Nc2nnc(-c3ccc(C(F)(F)F)cc3O)c3ccncc23)C1` [Compound I-264] showed an IC50 of 10 to 100 nM.
`CN1C[C@H](Nc2nnc(-c3ccc(C(F)(F)F)cc3O)c3ccncc23)CC(F)(F)C1` [Compound I-265] gave an IC50 of 1 to 10 nM.
`CCOC(=O)[C@@H]1CC[C@@H](Nc2nnc(-c3ccc(C(F)(F)F)cc3O)c3ccncc23)CN1` [Compound I-266, Ethyl (2S,5R)-5-((1-(2-hydroxy-4-(trifluoromethyl)phenyl)pyrido[3,4-d]pyridazin-4-yl)amino)piperidine-2-carboxylate] showed an IC50 of less than 1 nM.
In the case of `COc1cc(C)cc(O)c1-c1nnc(N[C@@H]2CCCN(C)C2)c2cnccc12` [Compound I-267], the IC50 is reported as 1 to 10 nM.
`Cc1cc(O)c(-c2nnc(N[C@@H]3CCCN(C)C3)c3cnccc23)c(O)c1` [Compound I-268] showed an IC50 of less than 1 nM.
`Oc1cc(C(F)(F)F)ccc1-c1nnc(N[C@@H]2CCCN(C3COC3)C2)c2cnccc12` [Compound I-271] showed an IC50 of 1 to 10 nM.
For `Cc1cc(C2CC2)ccc1-c1nnc(N[C@@H]2CCCN(C)C2)c2cnccc12` [Compound I-272], the IC50 was 1 to 10 nM.
`Cc1cc(O)c(-c2nnc(N[C@@H]3CCCN(CCO)C3)c3cnccc23)c(F)c1` [Compound I-273] showed an IC50 of less than 1 nM.
`CN1CCC[C@@H](Nc2nnc(-c3c(O)cc(C(F)(F)F)cc3C3CC3)c3ccncc23)C1` [Compound I-274, 3-Cyclopropyl-2-[4-[[(3R)-1-methyl-3-piperidyl]amino]pyrido[3,4-d]pyridazin-1-yl]-5-(trifluoromethyl)phenol] showed an IC50 of 1 to 10 nM.
`CN(C)C(C)(C)CNc1nnc(-c2ccc(C(F)(F)F)cc2O)c2ccncc12` [Compound I-275] gave an IC50 of 1 to 10 nM.
Molecule `COc1cc(C(F)(F)F)ccc1-c1nnc(N[C@@H]2CCCN(CCOC(F)F)C2)c2cnccc12` [Compound I-276] has an IC50 of 10 to 100 nM.
With `Oc1cc(C(F)(F)F)ccc1-c1nnc(N[C@@H]2CCCN(CC(F)F)C2)c2cnccc12` [Compound I-277] the IC50 was less than 1 nM.
In the case of `CN1C[C@@H](F)C[C@H](Nc2nnc(-c3ccc(C(F)(F)F)cc3O)c3ccncc23)C1` [Compound I-278], the IC50 is reported as 10 to 100 nM.
In the case of `Oc1cc(C(F)(F)F)ccc1-c1nnc(N[C@@H]2CCCN(C3CCOCC3)C2)c2cnccc12` [Compound I-279], the IC50 is reported as less than 1 nM.
With `CN1C[C@H](F)C[C@@H](Nc2nnc(-c3ccc(C(F)(F)F)cc3O)c3ccncc23)C1` [Compound I-280] the IC50 was less than 1 nM.
Work on `Oc1cc(C(F)(F)F)ccc1-c1nnc(N[C@@H]2CCCN(C3CCOC3)C2)c2cnccc12` (some centres unmarked) [Compound I-281] yielded an IC50 of less than 1 nM.
In the case of `OCCN1CCC[C@@H](Nc2nnc(-c3c(O)cc(Cl)cc3F)c3ccncc23)C1` [Compound I-282, 5-Chloro-3-fluoro-2-[4-[[(3R)-1-(2-hydroxyethyl)-3-piperidyl]amino]pyrido[3,4-d]-pyridazin-1-yl]phenol], the IC50 is reported as less than 1 nM.
In the case of `Oc1cc(C(F)(F)F)ccc1-c1nnc(N[C@@H]2CCCN(CC(F)(F)F)C2)c2cnccc12` [Compound I-283], the IC50 is reported as less than 1 nM.
Work on `OCCN1CCC[C@@H](Nc2nnc(-c3c(O)cc(C4CC4)cc3F)c3ccncc23)C1` [Compound I-284, 5-Cyclopropyl-3-fluoro-2-[4-[[(3R)-1-(2-hydroxyethyl)-3-piperidyl]amino]-pyrido[3,4-d]pyridazin-1-yl]phenol] yielded an IC50 of less than 1 nM.
`OCCN1CCC[C@@H](Nc2nnc(-c3c(O)cccc3F)c3ccncc23)C1` [Compound I-285, 3-Fluoro-2-[4-[[(3R)-1-(2-hydroxyethyl)-3-piperidyl]amino]pyrido[3,4-d]pyridazin-1-yl]phenol] showed an IC50 of 1 to 10 nM.
`CC(C)(O)CN1CCC[C@@H](Nc2nnc(-c3ccc(C(F)(F)F)cc3O)c3ccncc23)C1` [Compound I-286] showed an IC50 of less than 1 nM.
Work on `COc1ccc(-c2nnc(N[C@@H]3CCCN(C)C3)c3cnccc23)c(C(F)F)c1` [Compound I-287] yielded an IC50 of 1 to 10 nM.
`Oc1cc(C(F)(F)F)ccc1-c1nnc(NC2CCCCC2)c2cnccc12` [Compound I-288] showed an IC50 of 1 to 10 nM.
Molecule `CN1CCC[C@@H](Nc2nnc(-c3ccc(Cl)cc3C(F)(F)F)c3ccncc23)C1` [Compound I-289] has an IC50 of 1 to 10 nM.
With `Cc1cc(C(F)(F)F)ccc1-c1nnc(N[C@@H]2CCCN(C)C2)c2cnccc12` [Compound I-290] the IC50 was 1 to 10 nM.
Work on `CC(C)Oc1cc(C(F)(F)F)ccc1-c1nnc(N[C@@H]2CCCN(C)C2)c2cnccc12` [Compound I-291] yielded an IC50 of 1 to 10 nM.
Molecule `CN(c1nnc(-c2ccc(C(F)(F)F)cc2O)c2ccncc12)[C@@H]1CCCNC1` [Compound I-292, (R)-2-(4-(Methyl(piperidin-3-yl)amino)pyrido[3,4-d]pyridazin-1-yl)-5-(trifluoromethyl)phenol] has an IC50 of 1 to 10 nM.
Molecule `Oc1cc(C(F)(F)F)ccc1-c1nnc(N[C@@H]2CCCN(CCOC(F)F)C2)c2cnccc12` [Compound I-293] has an IC50 of less than 1 nM.
Molecule `Oc1cc(C(F)(F)F)ccc1-c1nnc(N[C@@H]2CCCN(CCCF)C2)c2cnccc12` [Compound I-294] has an IC50 of less than 1 nM.
`CC(C)N1CCC[C@@H](Nc2nnc(-c3ccc(C(F)(F)F)cc3O)c3ccncc23)C1` [Compound I-295] gave an IC50 of less than 1 nM.
`COc1ccc(-c2nnc(N[C@H]3CCCN(C)C3)c3cnccc23)c(C(C)C)c1` [Compound I-296] was tested, and the IC50 was 1 to 10 nM.
`Cc1ccc(-c2nnc(N[C@@H]3CCCN(C)C3)c3cnccc23)c(C(F)(F)F)c1` [Compound I-298] showed an IC50 of 1 to 10 nM.
For `Cc1ccc(-c2nnc(N[C@@H]3CCCN(C)C3)c3cnccc23)c(C(F)F)c1` [Compound I-299], the IC50 was less than 1 nM.
`[2H]C1(N2CCC[C@@H](Nc3nnc(-c4ccc(C(F)(F)F)cc4O)c4ccncc34)C2)CCC1` [Compound I-300] showed an IC50 of less than 1 nM.
